Experimental data reported in patent US20240041042A1, “1-(PYRIDYL)-5-AZINYLPYRAZOLE DERIVATIVES, AND THEIR USE FOR CONTROL OF UNDESIRED PLANT GROWTH” (Bayer Aktiengesellschaft, priority 2020, published 2024).
Where two headings read alike, the source gives them in different places.

Legend:
Format in all cases: in vivo
[1] = test system: Viola tricolor (VIOTR); experiment: Pre-emergence herbicidal action against VIOTR
How it was run: (§1)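 Pre-emergence soil-surface spray of compound, formulated as wettable powder or emulsion concentrate, in aqueous suspension or emulsion with 0.5% additive (600 l/ha; rate 320 g/ha or less). Activity rated visually after roughly 3 weeks in the greenhouse as a percentage of untreated controls, 0% meaning no difference.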

[2] = test system: Alopecurus myosuroides (ALOMY); experiment: Post-emergence herbicidal action against ALOMY; conditions: visual rating about 3 weeks after treatment vs untreated controls (100% = plants have died, 0% = like control plants)
How it was run: (§2)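 Post-emergence greenhouse spray, one-leaf stage, 600 l/ha water plus 0.5% additive; WP or EC formulations; application rates 320 g/ha or lower. Visual % damage vs untreated controls at ~3 weeks.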

[3] = test system: Amaranthus retroflexus (AMARE); experiment: Pre-emergence herbicidal action against AMARE; conditions: visual scoring after about 3 weeks vs untreated controls
How it was run: as §1

[4] = test system: Lolium rigidum (LOLRI); experiment: Pre-emergence herbicidal action against LOLRI
How it was run: as §1

[5] = test system: Amaranthus retroflexus (AMARE); experiment: Post-emergence herbicidal action against AMARE; conditions: 80 g/ha, visual rating about 3 weeks after treatment vs untreated controls (100% = plants have died, 0% = like control plants)
How it was run: as §2

[6] = test system: Polygonum convolvulus (POLCO); experiment: Post-emergence herbicidal action against POLCO
How it was run: as §2

[7] = test system: Pharbitis purpurea (PHBPU); experiment: Post-emergence herbicidal action against PHBPU
How it was run: as §2

[8] = test system: Avena fatua (AVEFA); experiment: Pre-emergence herbicidal action against AVEFA; conditions: visual scoring after about 3 weeks vs untreated controls
How it was run: as §1

[9] = test system: Lolium rigidum (LOLRI); experiment: Post-emergence herbicidal action against LOLRI
How it was run: as §2

[10] = test system: Echinochloa crus-galli (ECHCG); experiment: Post-emergence herbicidal action against ECHCG
How it was run: as §2

[11] = test system: Pharbitis purpurea (PHBPU); experiment: Pre-emergence herbicidal action against PHBPU; conditions: dosage 320 g/ha
How it was run: as §1

[12] = test system: Setaria viridis (SETVI); experiment: Post-emergence herbicidal action against SETVI
How it was run: as §2

[13] = test system: Abutilon theophrasti (ABUTH); experiment: Post-emergence herbicidal action against ABUTH; conditions: 80 g/ha, visual rating about 3 weeks after treatment vs untreated controls (100% = plants have died, 0% = like control plants)
How it was run: as §2

[14] = test system: Matricaria inodora (MATIN); experiment: Pre-emergence herbicidal action against MATIN
How it was run: as §1

[15] = test system: Polygonum convolvulus (POLCO); experiment: Pre-emergence herbicidal action against POLCO
How it was run: as §1

[16] = test system: Verconica persica (VERPE); experiment: Pre-emergence herbicidal action against VERPE; conditions: dosage 320 g/ha
How it was run: as §1

[17] = test system: Avena fatua (AVEFA); experiment: Post-emergence herbicidal action against AVEFA; conditions: visual rating about 3 weeks after treatment
How it was run: as §2

[18] = test system: Setaria viridis (SETVI); experiment: Pre-emergence herbicidal action against SETVI
How it was run: as §1

[19] = test system: Matricaria inodora (MATIN); experiment: Post-emergence herbicidal action against MATIN; conditions: dosage 80 g/ha
How it was run: as §2

[20] = test system: Alopecurus myosuroides (ALOMY); experiment: Pre-emergence herbicidal action against ALOMY; conditions: scored visually after about 3 weeks, 100% = plants have died
How it was run: as §1

[21] = test system: Echinochloa crus-galli (ECHCG); experiment: Pre-emergence herbicidal action against ECHCG
How it was run: as §1

[22] = test system: Verconica persica (VERPE); experiment: Post-emergence herbicidal action against VERPE
How it was run: as §2

[23] = test system: Zea mays (ZEAMX); conditions: 20 g/ha, ZEAMX, effect in comparison to untreated controls
How it was run: (§3)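 Effects were read visually as % versus untreated controls (0% = no effect, 100% = death) about 3 weeks post-treatment. Application was a post-emergence spray at the one-leaf stage of WP/EC formulations with 0.5% additive at 600 l/ha. Different dosages are denoted a, b and c.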

[24] = test system: Oryza sativa (ORYSA); conditions: crop plant compatibility
How it was run: as §3

[25] = test system: Viola tricolor (VIOTR); experiment: Post-emergence herbicidal action against VIOTR; conditions: 320 g/ha
How it was run: as §2

[26] = test system: Digitaria sanguinalis (DIGSA); experiment: Post-emergence herbicidal action against DIGSA; conditions: visual rating about 3 weeks after treatment
Method: Seeds of monocotyledonous and dicotyledonous weeds and crop plants are placed in sandy loam in plastic or organic planting pots, covered with soil and cultivated in a greenhouse under controlled growth conditions. 2 to 3 weeks after sowing, the test plants are treated at the one-leaf stage. The compounds of the invention, formulated in the form of wettable powders (WP) or as emulsion concentrates (EC), are then sprayed onto the green parts of the plants as aqueous suspension or emulsion with addition of 0.5% additive at a water application rate of 600 l/ha (converted). After the test plants have been kept in the greenhouse under optimum growth conditions for about 3 weeks, the activity of the preparations is rated visually in comparison to untreated controls. For example, 100% activity=the plants have died, 0% activity=like control plants.
Tables B1 to B13 below show the effects of selected compounds of the general formula (I) according to Table 1 on various harmful plants and at an application rate corresponding to 320 g/ha or lower, which were obtained by the experimental procedure mentioned above. The appendices “a”, “b” and “c” give differentiation by dosage used with otherwise the same harmful plants tested.

[27] = 20 g/ha, effect vs untreated controls

Row | Post-emergence action against ORYSA in % [24, 27] | Compound | Pre-emergence action against VIOTR in % ([1]; 320 g/ha, Viola tricolor) | Post-emergence action against ALOMY in % ([2]; 80 g/ha) | Pre-emergence action against AMARE in % ([3]; 80 g/ha) | Pre-emergence action against AMARE in % ([3]; 320 g/ha) | Pre-emergence action against LOLRI in % ([4]; dosage 320 g/ha) | Post-emergence action against AMARE in % [5] | Post-emergence action against PHBPU in % ([7]; dosage 80 g/ha) | Pre-emergence action against AVEFA in % ([8]; 320 g/ha) | Post-emergence action against LOLRI in % ([9]; dosage 80 g/ha) | Pre-emergence action against PHBPU in % [11] | Post-emergence action against SETVI in % ([12]; dosage 80 g/ha) | Post-emergence action against ABUTH in % [13] | Pre-emergence action against MATIN in % ([14]; dosage 320 g/ha) | Pre-emergence action against POLCO in % ([15]; dosage 320 g/ha) | Pre-emergence action against VERPE in % [16] | Post-emergence action against AVEFA in % ([17]; 80 g/ha) | Pre-emergence action against SETVI in % ([18]; dosage 320 g/ha) | Post-emergence action against MATIN in % [19] | Post-emergence action against VERPE in % ([22]; dosage 80 g/ha) | other results
1 | 0% | CCOC(=O)COc1nn(-c2ccccn2)c(-c2ccc(F)nc2)c1Cl [Example I-100] | 90% | 100% | 90% | 100% | 100% | 90% | 90% | 90% | 80% | 90% | 80% | 80% | 80% | 90% | 100% | 100% | 100% | 90% | 80% | Post-emergence action against POLCO in % ([6]; dosage 80 g/ha): 90%; Pre-emergence action against AVEFA in % ([8]; 80 g/ha): 80%; Post-emergence action against ECHCG in % ([10]; dosage 80 g/ha): 90%; Pre-emergence action against MATIN in % ([14]; dosage 80 g/ha): 80%; Pre-emergence action against SETVI in % ([18]; dosage 80 g/ha): 90%; Pre-emergence action against ALOMY ([20]; 80 g/ha): 100%; Pre-emergence action against ALOMY ([20]; 320 g/ha): 100%; Pre-emergence action against ECHCG in % ([21]; dosage 80 g/ha): 80%; Pre-emergence action against ECHCG in % ([21]; dosage 320 g/ha): 100%; Post-emergence action against ZEAMX in % (crop plant compatibility) [23]: 10%
2 | 10% | CC(C)=NOC(=O)[C@@H](C)Oc1nn(-c2ncccc2F)c(-c2ccc(F)nc2)c1Br [Example I-374] | 100% | 100% | 100% | 100% | 100% | 80% | – | 100% | 90% | 90% | 90% | 80% | 90% | 90% | 100% | 90% | 100% | 80% | 80% | Pre-emergence action against VIOTR in % ([1]; dosage 80 g/ha): 90%; Pre-emergence action against LOLRI in % ([4]; dosage 80 g/ha): 80%; Pre-emergence action against POLCO in % ([15]; dosage 80 g/ha): 80%; Pre-emergence action against ALOMY ([20]; 80 g/ha): 90%; Pre-emergence action against ALOMY ([20]; 320 g/ha): 100%; Pre-emergence action against ECHCG in % ([21]; dosage 320 g/ha): 100%; Post-emergence action against ZEAMX in % (crop plant compatibility) [23]: 10%
3 | 0% | COC(=O)C(C)OC(=O)C(C)Oc1nn(-c2ccccn2)c(-c2ccc(F)nc2)c1Br (centres unmarked) [Example I-288] | – | – | – | – | – | – | 80% | – | 80% | – | 90% | – | – | – | – | 80% | – | – | 80% | Post-emergence action against ALOMY in % ([2]; 320 g/ha): 90%; Post-emergence action against VIOTR in % [25]: 80%; Post-emergence action against POLCO in % ([6]; dosage 320 g/ha): 80%; Post-emergence action against PHBPU in % ([7]; dosage 320 g/ha): 90%; Post-emergence action against LOLRI in % ([9]; dosage 320 g/ha): 80%; Post-emergence action against ECHCG in % ([10]; dosage 320 g/ha): 80%; Post-emergence action against SETVI in % ([12]; dosage 320 g/ha): 90%; Post-emergence action against AVEFA in % ([17]; 320 g/ha): 90%; Post-emergence action against VERPE in % ([22]; 320 g/ha, VERPE): 80%; Post-emergence action against DIGSA in % ([26]; 80 g/ha): 80%; Post-emergence action against DIGSA in % ([26]; 320 g/ha): 90%; Post-emergence action against ORYSA in % ([24]; 80 g/ha, effect in comparison to untreated controls): 10%
